The values that follow are results of earlier work, collected in patent US4925674A (hiMedics, Inc., priority 1988, dated 1990).

Molecules are shown by their SMILES.

The conditions of the data set: well known.

In the case of `CC1(C)S[C@@H]2[C@H](NC(=O)[C@H](N)c3ccc(O)cc3)C(=O)N2[C@H]1C(=O)O` [Amoxicillin, amoxicillin], the dose-related gastrointestinal upsets result is “dose-related gastrointestinal upsets (epigastric distress, nausea, vomiting, and especially diarrhea) occur commonly”.
